Data from patent US11964943B2, “3,5-diarylidenyl-n-substituted-piperid-4-one-derived inhibitors of Stat3 pathway activity and uses thereof” (priority 2017, dated 2024).
“Also recorded” adds a separate entry of the source.

Columns and labels:
A-10 smooth muscle cells = experiment: Microtubule disruption by indirect immunofluorescence; type: cell-based; conditions: 30 μM
DU145 cells [1] = experiment: Annexin V/PI apoptosis assay; type: cell-based; conditions: DU145, 24 h, increasing concentrations
Method: Cells were seeded in 24-well plates at densities of 10×10^4 cells/well (A2780-cisplatin resistant) and 1.6×10^4 cells/well (DU145) and allowed to grow at 37° C. overnight prior to treatment. […] At the end of the drug incubations, the supernatant along with the trypsinised cells were collected in falcon tubes and spun for 3 min at 300 g. Cell pellets were resuspended in PBS and transferred to fresh Eppendorf tubes. After a final round of centrifugation, cell pellets were gently resuspended in 150 μl of a Annexin V-FITC labelled solution in binding buffer (2 μl per 150 μl buffer; Binding buffer: 10 mM Hepes/NaOH, pH 7.4, 140 mM NaCl and 2.5 mM CaCl2) and incubated in the dark at 37° C. for 15 min. Cells were subsequently stained with 150 μl of a 200 mg/mL PI-solution and samples were immediately processed with the flow cytometer. […] The data were analysed and presented using the FlowJo software.
Annexin V/Propidium iodide Apoptosis/Cell death was assessed by flow cytometry using the FITC-conjugated annexin V protein (Affymetrix, eBioscience) and propidium iodide double staining. […] Cells were subsequently counterstained with the addition of PI (200 μg/ml) and analysed on a Millipore Guava easyCyte™ 8HT flow cytometer using the InCyte software. The derived data were analysed as dot plots and quantified using the FlowJo software (TreeStar).

pStat3 = experiment: Immunohistochemistry of pStat3 in xenograft tissue sections; type: in vivo, mice; conditions: A549, A431, DU145 and HCT116-oxaliplatin resistant xenografts, single dose 30 mg/kg, 24 h
Method: Mice were treated as described in the survival experiments but were sacrificed 24 h post administration of the compound or vehicle, intraperitoneally.

DU145 cells [2] = experiment: Colony formation assay with paclitaxel; type: cell-based; conditions: 0.4 μM IE-8 + 0.003 μM paclitaxel, 10 days
Method: DU145 cells were seeded at 1000 cells/well in 6-well plates and allowed to adhere overnight. Cells were treated after seeding with IE-8, paclitaxel, and a combination thereof, and incubated without any further manipulation for 10 days until the control (untreated) wells had <200 colonies formed. Colonies were fixed with ice-cold 100% Methanol, washed with PBS, stained with crystal violet (0.5% w/v) for 5 minutes and counted using a colony-counting function of the Fusion 15.12 software.

DU145 cells [3] = experiment: Colony formation assay for radiosensitization; type: cell-based
Method: The X-Ray radiation facility provided an AGO HS MP-1 X-ray machine with a Varian ND1-321 tube used to produce X rays at a dose rate of 1 Gy/min.
Stock cultures were trypsinised and 2.5×10^4 cells were seeded into 6-well plates and incubated at 37° C. for 24-48 hours. When cells reached […] confluency, they were treated with IE-8 (0, 0.8, 1, and 1.2 μM) for 18 hours. After drug treatment, cells were harvested by trypsinisation and re-seeded. […] Plates were then incubated for 14 days at 37° C. with 5% CO2. After this incubation, plates were washed with tap water and fixed. Colonies were stained for 30 minutes at room temperature with 1% (w/v) crystal violet (Sigma-Aldrich) in 10% ethanol, and subsequently dried overnight at room temperature. Colonies consisting of at least 50 cells were counted for each treatment. The number of colonies in unirradiated wells was used to determine the plating efficiency (number of colonies/number of cells seeded). The following formula was used to calculate survival fraction: […]

Compound: 3,5-Di(3,4,5-trimethoxybenzylidene)-1-phenylpiperidin-4-one [IE-8]
- effect on microtubules (A-10 smooth muscle cells): did not show any effect on the microtubules

Compound: COc1cc(/C=C2\CN(c3ccccc3)C/C(=C\c3cc(OC)c(OC)c(OC)c3)C2=O)cc(OC)c1OC [IE-8, 3,5-Di(3,4,5-trimethoxybenzylidene)-1-phenylpiperidin-4-one]
- apoptotic cells (Annexin V/PI) (DU145 cells [1]): dose-dependent increase in apoptotic cells
- pStat3 levels in xenograft tissue sections (pStat3): marked and in many instances significant downregulation; also recorded: downregulation of the pStat3 levels in vivo, was achieved
- colony formation (DU145 cells [2]): no colonies were formed
- colony formation following irradiation (DU145 cells [3]; 18 h pretreatment): dose-dependent decrease in colony formation
- Survival fraction (DU145 cells [3]; IE-8 0.8 μM 18 h pretreatment, 0 Gy): 1.000
- Survival fraction (DU145 cells [3]; IE-8 0.8 μM 18 h pretreatment, 2 Gy): 0.451
- Survival fraction (DU145 cells [3]; IE-8 0.8 μM 18 h pretreatment, 4 Gy): 0.147
- Survival fraction (DU145 cells [3]; IE-8 0.8 μM 18 h pretreatment, 6 Gy): 0.047
- Survival fraction (DU145 cells [3]; IE-8 0.8 μM 18 h pretreatment, 8 Gy): 0.013
- Survival fraction (DU145 cells [3]; IE-8 1 μM 18 h pretreatment, 0 Gy): 1.000
- Survival fraction (DU145 cells [3]; IE-8 1 μM 18 h pretreatment, 2 Gy): 0.440
- Survival fraction (DU145 cells [3]; IE-8 1 μM 18 h pretreatment, 4 Gy): 0.134
- Survival fraction (DU145 cells [3]; IE-8 1 μM 18 h pretreatment, 6 Gy): 0.026
- Survival fraction (DU145 cells [3]; IE-8 1 μM 18 h pretreatment, 8 Gy): 0.006
- Survival fraction (DU145 cells [3]; IE-8 1.2 μM 18 h pretreatment, 0 Gy): 1.000
- Survival fraction (DU145 cells [3]; IE-8 1.2 μM 18 h pretreatment, 2 Gy): 0.349
- Survival fraction (DU145 cells [3]; IE-8 1.2 μM 18 h pretreatment, 4 Gy): 0.077
- Survival fraction (DU145 cells [3]; IE-8 1.2 μM 18 h pretreatment, 6 Gy): 0.014
- Survival fraction (DU145 cells [3]; IE-8 1.2 μM 18 h pretreatment, 8 Gy): 0.002
